Test results taken from PubChem BioAssay (NCI).
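Grown in 96-well plates, cells were treated for 48 hours with each compound at five concentrations. Insufficient inhibition: endpoint recorded as highest concentration tested. Abbreviation: GI50, concentration required for 50% inhibition of growth. TGI denotes the concentration required for complete inhibition of growth.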

What was measured:
Assay in all cases: DTP human tumour cell line panel, 48 h
786-0 renal = test system: 786-0 renal
A498 renal = test system: A498 renal
A549 NSCLC = test system: A549 NSCLC
ACHN renal = test system: ACHN renal
BT-549 breast = test system: BT-549 breast
CCRF-CEM leukemia = test system: CCRF-CEM leukemia
COLO 205 colon = test system: COLO 205 colon
DU-145 prostate = test system: DU-145 prostate
EKVX NSCLC = test system: EKVX NSCLC
HCC-2998 colon = test system: HCC-2998 colon
HCT-116 colon = test system: HCT-116 colon
HCT-15 colon = test system: HCT-15 colon
HL-60(TB) leukemia = test system: HL-60(TB) leukemia
HOP-62 NSCLC = test system: HOP-62 NSCLC
HOP-92 NSCLC = test system: HOP-92 NSCLC
HS 578T breast = test system: HS 578T breast
HT29 colon = test system: HT29 colon
IGROV1 ovarian = test system: IGROV1 ovarian
K-562 leukemia = test system: K-562 leukemia
KM12 colon = test system: KM12 colon
LOX IMVI melanoma = test system: LOX IMVI melanoma
M14 melanoma = test system: M14 melanoma
MALME-3M melanoma = test system: MALME-3M melanoma
MCF7 breast = test system: MCF7 breast
MDA-MB-231 breast = test system: MDA-MB-231 breast
MDA-MB-435 = test system: MDA-MB-435
MOLT-4 leukemia = test system: MOLT-4 leukemia
NCI-H226 lung = test system: NCI-H226 lung
NCI-H23 lung = test system: NCI-H23 lung
NCI-H460 lung = test system: NCI-H460 lung
NCI-H522 lung = test system: NCI-H522 lung
NCI/ADR-RES ovarian = test system: NCI/ADR-RES ovarian
OVCAR-3 ovarian = test system: OVCAR-3 ovarian
OVCAR-4 ovarian = test system: OVCAR-4 ovarian
OVCAR-5 ovarian = test system: OVCAR-5 ovarian
OVCAR-8 ovarian = test system: OVCAR-8 ovarian
PC-3 prostate = test system: PC-3 prostate
RPMI-8226 leukemia = test system: RPMI-8226 leukemia
RXF 393 renal = test system: RXF 393 renal
SF-268 CNS = test system: SF-268 CNS
SF-295 CNS = test system: SF-295 CNS
SK-MEL-2 melanoma = test system: SK-MEL-2 melanoma
SK-MEL-28 melanoma = test system: SK-MEL-28 melanoma
SK-MEL-5 melanoma = test system: SK-MEL-5 melanoma
SK-OV-3 ovarian = test system: SK-OV-3 ovarian
SN12C renal = test system: SN12C renal
SNB-19 CNS = test system: SNB-19 CNS
SNB-75 CNS = test system: SNB-75 CNS
SR leukemia = test system: SR leukemia
SW-620 colon = test system: SW-620 colon
TK-10 renal = test system: TK-10 renal
U251 CNS = test system: U251 CNS
UACC-257 melanoma = test system: UACC-257 melanoma
UACC-62 melanoma = test system: UACC-62 melanoma
UO-31 renal = test system: UO-31 renal

CCSc1ccc([C@@H]2[C@@H](N)C(=O)N2c2cc(OC)c(OC)c(OC)c2)cc1
GI50 (786-0 renal): 80 nM | TGI (786-0 renal): > 100000 nM | GI50 (A498 renal): 56.3 nM | TGI (A498 renal): 8290 nM | GI50 (A549 NSCLC): 108 nM | TGI (A549 NSCLC): > 100000 nM | GI50 (ACHN renal): 71 nM | TGI (ACHN renal): > 100000 nM | GI50 (BT-549 breast): 59.2 nM | TGI (BT-549 breast): > 100000 nM | GI50 (CCRF-CEM leukemia): 43.9 nM | TGI (CCRF-CEM leukemia): > 100000 nM | GI50 (COLO 205 colon): 51.3 nM | TGI (COLO 205 colon): 11700 nM | GI50 (DU-145 prostate): 188 nM | TGI (DU-145 prostate): > 100000 nM | GI50 (EKVX NSCLC): 638 nM | TGI (EKVX NSCLC): > 100000 nM | GI50 (HCC-2998 colon): 755 nM | TGI (HCC-2998 colon): > 100000 nM | GI50 (HCT-116 colon): 44.8 nM | TGI (HCT-116 colon): > 100000 nM | GI50 (HCT-15 colon): 65.4 nM | TGI (HCT-15 colon): > 100000 nM | GI50 (HL-60(TB) leukemia): 25.7 nM | TGI (HL-60(TB) leukemia): 67 nM | GI50 (HOP-62 NSCLC): 60 nM | TGI (HOP-62 NSCLC): > 100000 nM | GI50 (HOP-92 NSCLC): 30200 nM | TGI (HOP-92 NSCLC): > 100000 nM | GI50 (HS 578T breast): 180 nM | TGI (HS 578T breast): > 100000 nM | GI50 (HT29 colon): 33.3 nM | TGI (HT29 colon): 18000 nM | GI50 (IGROV1 ovarian): 1430 nM | TGI (IGROV1 ovarian): > 100000 nM | GI50 (K-562 leukemia): 35.9 nM | TGI (K-562 leukemia): > 100000 nM | GI50 (KM12 colon): 53.3 nM | TGI (KM12 colon): > 100000 nM | GI50 (LOX IMVI melanoma): 75.4 nM | TGI (LOX IMVI melanoma): > 100000 nM | GI50 (M14 melanoma): 45.6 nM | TGI (M14 melanoma): > 100000 nM | GI50 (MALME-3M melanoma): > 100000 nM | TGI (MALME-3M melanoma): > 100000 nM | GI50 (MCF7 breast): 39.2 nM | TGI (MCF7 breast): > 100000 nM | GI50 (MDA-MB-231 breast): 376 nM | TGI (MDA-MB-231 breast): > 100000 nM | GI50 (MDA-MB-435): 27.7 nM | TGI (MDA-MB-435): 102 nM | GI50 (MOLT-4 leukemia): 52.8 nM | TGI (MOLT-4 leukemia): > 100000 nM | GI50 (NCI-H226 lung): 79000 nM | TGI (NCI-H226 lung): > 100000 nM | GI50 (NCI-H23 lung): 14300 nM | TGI (NCI-H23 lung): > 100000 nM | GI50 (NCI-H460 lung): 48.8 nM | TGI (NCI-H460 lung): > 100000 nM | GI50 (NCI-H522 lung): 23.8 nM | TGI (NCI-H522 lung): 96.6 nM | GI50 (NCI/ADR-RES ovarian): 130 nM | TGI (NCI/ADR-RES ovarian): > 100000 nM | GI50 (OVCAR-3 ovarian): 33.8 nM | TGI (OVCAR-3 ovarian): 2080 nM | GI50 (OVCAR-4 ovarian): 9310 nM | TGI (OVCAR-4 ovarian): > 100000 nM | GI50 (OVCAR-5 ovarian): 892 nM | TGI (OVCAR-5 ovarian): > 100000 nM | GI50 (OVCAR-8 ovarian): 176 nM | TGI (OVCAR-8 ovarian): > 100000 nM | GI50 (PC-3 prostate): 77.3 nM | TGI (PC-3 prostate): > 100000 nM | GI50 (RPMI-8226 leukemia): 86.2 nM | TGI (RPMI-8226 leukemia): 46900 nM | GI50 (RXF 393 renal): 245 nM | TGI (RXF 393 renal): > 100000 nM | GI50 (SF-268 CNS): 87.2 nM | TGI (SF-268 CNS): > 100000 nM | GI50 (SF-295 CNS): 51.5 nM | TGI (SF-295 CNS): > 100000 nM | GI50 (SK-MEL-2 melanoma): 47 nM | TGI (SK-MEL-2 melanoma): > 100000 nM | GI50 (SK-MEL-28 melanoma): 3790 nM | TGI (SK-MEL-28 melanoma): > 100000 nM | GI50 (SK-MEL-5 melanoma): 78.3 nM | TGI (SK-MEL-5 melanoma): > 100000 nM | GI50 (SK-OV-3 ovarian): 54.5 nM | TGI (SK-OV-3 ovarian): > 100000 nM | GI50 (SN12C renal): 524 nM | TGI (SN12C renal): > 100000 nM | GI50 (SNB-19 CNS): 71.5 nM | TGI (SNB-19 CNS): > 100000 nM | GI50 (SNB-75 CNS): 37.5 nM | TGI (SNB-75 CNS): > 100000 nM | GI50 (SR leukemia): 44.9 nM | TGI (SR leukemia): > 100000 nM | GI50 (SW-620 colon): 47.6 nM | TGI (SW-620 colon): > 100000 nM | GI50 (TK-10 renal): 30600 nM | TGI (TK-10 renal): > 100000 nM | GI50 (U251 CNS): 61 nM | TGI (U251 CNS): > 100000 nM | GI50 (UACC-257 melanoma): > 100000 nM | TGI (UACC-257 melanoma): > 100000 nM | GI50 (UACC-62 melanoma): 45.1 nM | TGI (UACC-62 melanoma): > 100000 nM | GI50 (UO-31 renal): 590 nM | TGI (UO-31 renal): > 100000 nM
